The values below are quoted from earlier work in patent US20110171124A1, “In situ methods for monitoring the EMT status of tumor cells in vivo” (OSI Pharmaceuticals, Inc., priority 2009, published 2011).

SMILES strings stand for the structures.

This series has as its system NSCLC. The following applies: phase III, monotherapy, advanced treatment-refractory NSCLC patients.

Consider `C#Cc1cccc(Nc2ncnc3cc(OCCOC)c(OCCOC)cc23)c1` [erlotinib, [6,7-bis(2-methoxyethoxy)-4-quinazolin-4-yl]-(3-ethynylphenyl)amine], for which the disease progression entry is given as “delayed disease progression”, the survival entry was “significantly prolonged survival” and the “worsening of lung cancer-related symptoms” value was “delayed worsening of lung cancer-related symptoms”.
